Experimental data: PubChem BioAssay (NCI)
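Five compound concentrations were applied to cells in 96-well plates for 48 hours; endpoints were derived by simple linear interpolation of the resulting dose-response curve. Definition used: TGI = concentration required for complete inhibition of growth.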

How the values were obtained:
Test in all cases: NCI anticancer screen, dose series, 48 h
OVCAR-4 ovarian = system: OVCAR-4 ovarian
MOLT-4 leukemia = system: MOLT-4 leukemia
SN12C renal = system: SN12C renal
HOP-62 NSCLC = system: HOP-62 NSCLC
MDA-N = system: MDA-N
KM12 colon = system: KM12 colon
TK-10 renal = system: TK-10 renal
M14 melanoma = system: M14 melanoma
HCT-116 colon = system: HCT-116 colon
BT-549 breast = system: BT-549 breast
OVCAR-8 ovarian = system: OVCAR-8 ovarian
EKVX NSCLC = system: EKVX NSCLC

| SMILES | TGI (OVCAR-4 ovarian) [µM] | TGI (MOLT-4 leukemia) [µM] | TGI (SN12C renal) [µM] | TGI (HOP-62 NSCLC) [µM] | TGI (MDA-N) [µM] | TGI (KM12 colon) [µM] | TGI (TK-10 renal) [µM] | TGI (M14 melanoma) [µM] | TGI (HCT-116 colon) [µM] | TGI (BT-549 breast) [µM] | TGI (OVCAR-8 ovarian) [µM] | TGI (EKVX NSCLC) [µM] |
| --- | --- | --- | --- | --- | --- | --- | --- | --- | --- | --- | --- | --- |
| Cc1cnc2sn(-c3ccc(Br)cc3)c(=O)c2c1 | 79.3 | > 100 | > 100 | 81.5 | > 100 | > 100 | > 100 | > 100 | > 100 | > 100 | > 100 | > 100 |
| CC(C)N(C(C)C)S(=O)(=O)C[C@]12CC[C@H](CC13OCC(CS(=O)(=O)c1ccccc1)O3)C2(C)C (some centres undefined) | > 100 | 45.7 | > 100 | > 100 | > 100 | > 100 | 98.7 | > 100 | > 100 | > 100 | > 100 | > 100 |
| CC1(C)[C@@H]2C[C@H]1c1cnc(-c3ccccn3)cc1C2CCCCC[C@@H]1c2cc(-c3ccccn3)ncc2[C@@H]2C[C@H]1C2(C)C (some centres undefined) | > 100 | > 100 | > 44.9 | > 69.2 | 97.1 | > 100 | > 100 | > 22.1 | 31.3 | > 100 | > 100 | > 100 |
| COC(=O)C12OC3CO[Si](C(C)C)(C(C)C)O[Si](C(C)C)(C(C)C)OC3C1Oc1nc(=O)ccn12 (centres undefined) | 30.8 | 30.8 | 32 | 32.2 | 32.7 | 29.2 | 30.9 | 32.3 | 29.6 | 32.1 | 29 | 30.7 |
| ClCCCCCc1c2nc(c(CCCCCCl)c3ccc([nH]3)c(CCCCCCl)c3ccc([nH]3)c(CCCCCCl)c3nc1C=C3)C=C2 | > 100 | > 100 | > 100 | > 100 | > 100 | > 100 | > 100 | > 100 | > 100 | > 100 | > 100 | > 100 |
| CC1C(C#N)(C#N)C(C#N)=C(N)C1(Cl)[N+](=O)[O-] (centres undefined) | 25.8 | 11.6 | 20.9 | 9.72 | 21.3 | 34.4 | 28.2 | 22.1 | 20.3 | 26.3 | 28.7 | 41.4 |
| Cc1n(Cc2ccccc2)nc2sc(N)n[n+]12 | > 100 | > 100 | > 100 | > 100 | > 100 | > 100 | > 100 | > 100 | > 100 | > 100 | > 100 | > 100 |
| O=C(c1ccc(Cl)cc1)N(C(=S)OCCOc1ccccc1)c1ccccc1 | 40.8 | 59.8 | 39.3 | 54 | 33.3 | 39.4 | > 100 | 32.4 | 30.9 | 52.3 | 48.3 | 48.6 |
| CCOC(=O)c1nnc2c(C#N)c(-c3ccccc3)c(C)n2c1N | 43.6 | > 100 | > 100 | > 100 | > 100 | > 100 | > 100 | > 100 | > 100 | > 100 | 98.3 | > 100 |
| CN(C)c1ccc(C=C2C(=O)NC(=S)NC2=O)c2ccccc12 | > 100 | > 100 | > 100 | > 100 | > 100 | > 100 | > 100 | > 100 | > 100 | > 100 | 77 | > 100 |
| COC(=O)CC1c2ccccc2N2C(=O)Cc3c([nH]c4ccccc34)C12 (centres undefined) | > 100 | > 100 | > 100 | > 100 | > 100 | > 100 | > 100 | > 100 | > 100 | > 100 | > 100 | > 100 |
| CCN1CN(c2ccccc2)C2(CCN(CC(CC3OCCO3)c3ccc(F)cc3)CC2)C1=O (centres undefined) | 36.3 | > 67 | > 89.5 | 12.1 | > 26.3 | 17.5 | > 46.7 | 9.54 | 11 | 53.2 | > 100 | > 100 |
